For one experiment, the target named is CDK7 (Homo sapiens (Human), UniProt P50613). As to the kind of experiment: In vitro inhibitory activity against CDK7 (Table 1). It is filed as biochemical. As to the method: In vitro kinase assays with immunoprecipitated proteins (or recombinant CAK complexes) were performed as follows. Kinase reactions were performed in 25 μL of final volume of reaction buffer (50 mM Hepes, pH 7.5, 150 mM NaCl, 10 mM MgCl2, 5% glycerol, 25 μM ATP, and 10 μCi of [γ-32P]ATP). Each reaction contained 1 μg of RNAP II. Incubation was at 30° C. for 30-45 min. Reactions were terminated by addition of 5 μL of 5×SDS-PAGE sample buffer and incubated at 95° C. for 5 min. Reactions were analyzed by SDS-PAGE, and the dried gel was exposed to film or PhosphorImager plate.

In a further experiment the test system is Jurkat. The experiment can be described thus: Jurkat (proliferation, CellTiter-Glo). In kind it is cell-based. As to conditions: Homo sapiens, Jurkat; read-out: Calculated IC50, Jurkat.
A further experiment concerns the target MLK3 (Homo sapiens (Human), UniProt Q16584). As to the kind of experiment: Life Technologies LanthaScreen Eu kinase assay, MLK3. In kind it is binding. The following applies: superscript b (footnote not given; tested at 100 nM and 1 μM). In general terms: Time-resolved FRET reads energy transfer from a long-lived donor to a nearby acceptor.
The next experiment addresses IRAK1 (Homo sapiens (Human), UniProt P51617). As to the kind of experiment: Life Technologies Adapta kinase assay, IRAK1. In kind it is biochemical. The following applies: superscript b (footnote not given; tested at 100 nM and 1 μM).
The next experiment concerns T47D. The experiment can be described thus: Proliferation assay, CellTiter-Glo, 72 hour. In kind it is cell-based. As to conditions: Homo sapiens, T47D, breast cancer cell line, read-out: Inhibition of proliferation, T47D.
The subject of the next experiment is MDA-MB231. As to the kind of experiment: Proliferation assay, CellTiter-Glo, 72 hour. In kind it is cell-based. As to conditions: Homo sapiens, MDA-MB-231, breast cancer cell line, read-out: Inhibition of proliferation, MDA-MB231.
A further experiment relates to RS4-11. As to the kind of experiment: Proliferation assay, CellTiter-Glo, 72 hour. It is filed as cell-based. As to conditions: Homo sapiens, RS4-11, blood cancer cell line, read-out: Inhibition of proliferation, RS4-11.
In another experiment the test system is SKBR3. The experiment can be described thus: Proliferation assay, CellTiter-Glo, 72 hour. In kind it is cell-based. As to conditions: Homo sapiens, SK-BR-3, breast cancer cell line, read-out: Inhibition of proliferation, SKBR3. (In general: In ATP-based viability assays light output follows the ATP content of the culture.)
The test system of another experiment is MCF10A. The experiment can be described thus: Proliferation assay, CellTiter-Glo, 72 hour. In kind it is cell-based. As to conditions: Homo sapiens, MCF-10A, non-tumorigenic breast epithelial cell line, read-out: Inhibition of proliferation, MCF10A.
The subject of another experiment is SAOS. The experiment can be described thus: Proliferation assay, CellTiter-Glo, 72 hour. In kind it is cell-based. As to conditions: osteosarcoma cell line, read-out: Inhibition of proliferation, SAOS.
In another experiment the test system is RD-ES. As to the kind of experiment: Proliferation assay, CellTiter-Glo, 72 hour. The following applies: RD-ES, Ewing's sarcoma cell line, read-out: Inhibition of proliferation, RD-ES. In kind it is cell-based.
The test system of another experiment is Hs822T. As to the kind of experiment: Proliferation assay, CellTiter-Glo, 72 hour. It is filed as cell-based. The following applies: Ewing's sarcoma cell line, read-out: Inhibition of proliferation, Hs822T.
For a further experiment, the system named is MNNG-HOS Cl#5. As to the kind of experiment: Proliferation assay, CellTiter-Glo, 72 hour. In kind it is cell-based. The following applies: osteosarcoma cell line, read-out: Inhibition of proliferation, MNNG-HOS Cl#5.
The next experiment deals with MCF7. The experiment can be described thus: Proliferation assay, CellTiter-Glo, 72 hour. It is filed as cell-based. The following applies: Homo sapiens, MCF7, breast cancer cell line, read-out: Inhibition of proliferation, MCF7.
The subject of a further experiment is THP-1. As to the kind of experiment: Proliferation assay, CellTiter-Glo, 72 hour. It is filed as cell-based. As to conditions: Homo sapiens, THP-1, blood cancer cell line, read-out: Inhibition of proliferation, THP-1.
The subject of another experiment is MV4-11. The experiment can be described thus: Proliferation assay, CellTiter-Glo, 72 hour. It is filed as cell-based. As to conditions: Homo sapiens, MV4-11, blood cancer cell line, read-out: Inhibition of proliferation, MV4-11.
The next experiment concerns A673. The experiment can be described thus: Proliferation assay, CellTiter-Glo, 72 hour. In kind it is cell-based. The following applies: Homo sapiens, A673, Ewing's sarcoma cell line, read-out: Inhibition of proliferation, A673.
The test system of a further experiment is HL60. The experiment can be described thus: Proliferation assay, CellTiter-Glo, 72 hour. In kind it is cell-based. The following applies: Homo sapiens, HL-60, blood cancer cell line, read-out: Inhibition of proliferation, HL60.
A further experiment has as its system SK-ES. As to the kind of experiment: Proliferation assay, CellTiter-Glo, 72 hour. In kind it is cell-based. The following applies: Ewing's sarcoma cell line, read-out: Inhibition of proliferation, SK-ES.
The test system of another experiment is 143B. The experiment can be described thus: Proliferation assay, CellTiter-Glo, 72 hour. In kind it is cell-based. As to conditions: Homo sapiens, 143B, osteosarcoma cell line, read-out: Inhibition of proliferation, 143B.
The test system of the next experiment is hTERT-HME1. The experiment can be described thus: Proliferation assay, CellTiter-Glo, 72 hour. In kind it is cell-based. As to conditions: hTERT-HME1, immortalized normal mammary epithelial cell line, read-out: Inhibition of proliferation, hTERT-HME1.
A further experiment relates to Hs863T. As to the kind of experiment: Proliferation assay, CellTiter-Glo, 72 hour. It is filed as cell-based. The following applies: Ewing's sarcoma cell line, read-out: Inhibition of proliferation, Hs863T.

Some results are limits rather than exact numbers.

Sequence of CDK7 (P50613 whole entry, looked up): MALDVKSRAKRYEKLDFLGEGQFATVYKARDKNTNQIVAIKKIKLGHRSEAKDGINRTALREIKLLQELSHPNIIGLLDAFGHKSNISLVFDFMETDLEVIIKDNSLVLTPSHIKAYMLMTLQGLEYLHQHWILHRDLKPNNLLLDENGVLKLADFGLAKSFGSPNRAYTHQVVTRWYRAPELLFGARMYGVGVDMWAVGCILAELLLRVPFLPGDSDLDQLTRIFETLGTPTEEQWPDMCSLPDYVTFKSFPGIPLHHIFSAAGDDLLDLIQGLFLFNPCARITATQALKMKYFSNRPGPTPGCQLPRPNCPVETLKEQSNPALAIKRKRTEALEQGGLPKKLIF
Sequence of CDK7 (P51946 whole entry partner, looked up): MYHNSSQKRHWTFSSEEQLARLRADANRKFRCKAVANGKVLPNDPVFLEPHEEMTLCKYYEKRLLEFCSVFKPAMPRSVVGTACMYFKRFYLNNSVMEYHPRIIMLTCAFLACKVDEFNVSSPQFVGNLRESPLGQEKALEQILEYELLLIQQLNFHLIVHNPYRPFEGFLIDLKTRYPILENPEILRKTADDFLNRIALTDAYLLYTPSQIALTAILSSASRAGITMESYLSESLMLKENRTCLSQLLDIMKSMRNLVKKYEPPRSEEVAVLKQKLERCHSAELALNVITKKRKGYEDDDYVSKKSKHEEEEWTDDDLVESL
Sequence of CDK7 (P51948 whole entry partner, looked up): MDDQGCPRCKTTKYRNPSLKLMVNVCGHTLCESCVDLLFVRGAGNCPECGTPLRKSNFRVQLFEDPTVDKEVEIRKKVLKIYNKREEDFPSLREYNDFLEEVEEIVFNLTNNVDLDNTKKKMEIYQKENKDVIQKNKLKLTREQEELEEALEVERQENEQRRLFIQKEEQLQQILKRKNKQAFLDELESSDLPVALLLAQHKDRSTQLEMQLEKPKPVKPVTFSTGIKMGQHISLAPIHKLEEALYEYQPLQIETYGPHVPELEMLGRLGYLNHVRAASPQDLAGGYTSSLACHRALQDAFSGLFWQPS
Sequence of MLK3 (Q16584 whole entry): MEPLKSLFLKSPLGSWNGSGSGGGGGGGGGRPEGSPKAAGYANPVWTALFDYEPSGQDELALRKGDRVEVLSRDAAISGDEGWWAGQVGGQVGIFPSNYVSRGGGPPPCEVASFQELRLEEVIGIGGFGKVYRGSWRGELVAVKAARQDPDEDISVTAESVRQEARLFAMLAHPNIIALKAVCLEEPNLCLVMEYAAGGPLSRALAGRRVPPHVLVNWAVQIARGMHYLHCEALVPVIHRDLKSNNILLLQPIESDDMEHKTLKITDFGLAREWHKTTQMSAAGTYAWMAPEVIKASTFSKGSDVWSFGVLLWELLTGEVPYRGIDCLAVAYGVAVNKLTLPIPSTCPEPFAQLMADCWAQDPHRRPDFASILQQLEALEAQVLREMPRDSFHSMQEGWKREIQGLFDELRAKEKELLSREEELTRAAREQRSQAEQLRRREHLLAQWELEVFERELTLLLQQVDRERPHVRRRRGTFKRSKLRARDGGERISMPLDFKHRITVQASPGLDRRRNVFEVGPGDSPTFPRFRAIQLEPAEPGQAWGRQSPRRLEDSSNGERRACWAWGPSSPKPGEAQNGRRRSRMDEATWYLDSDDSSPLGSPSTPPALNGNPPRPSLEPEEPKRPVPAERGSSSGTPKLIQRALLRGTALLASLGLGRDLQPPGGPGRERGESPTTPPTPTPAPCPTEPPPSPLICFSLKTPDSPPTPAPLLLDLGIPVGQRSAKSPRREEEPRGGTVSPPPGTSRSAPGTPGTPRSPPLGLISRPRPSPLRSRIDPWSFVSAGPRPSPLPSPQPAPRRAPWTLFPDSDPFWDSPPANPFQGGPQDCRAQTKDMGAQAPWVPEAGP
Sequence of IRAK1 (P51617 whole entry): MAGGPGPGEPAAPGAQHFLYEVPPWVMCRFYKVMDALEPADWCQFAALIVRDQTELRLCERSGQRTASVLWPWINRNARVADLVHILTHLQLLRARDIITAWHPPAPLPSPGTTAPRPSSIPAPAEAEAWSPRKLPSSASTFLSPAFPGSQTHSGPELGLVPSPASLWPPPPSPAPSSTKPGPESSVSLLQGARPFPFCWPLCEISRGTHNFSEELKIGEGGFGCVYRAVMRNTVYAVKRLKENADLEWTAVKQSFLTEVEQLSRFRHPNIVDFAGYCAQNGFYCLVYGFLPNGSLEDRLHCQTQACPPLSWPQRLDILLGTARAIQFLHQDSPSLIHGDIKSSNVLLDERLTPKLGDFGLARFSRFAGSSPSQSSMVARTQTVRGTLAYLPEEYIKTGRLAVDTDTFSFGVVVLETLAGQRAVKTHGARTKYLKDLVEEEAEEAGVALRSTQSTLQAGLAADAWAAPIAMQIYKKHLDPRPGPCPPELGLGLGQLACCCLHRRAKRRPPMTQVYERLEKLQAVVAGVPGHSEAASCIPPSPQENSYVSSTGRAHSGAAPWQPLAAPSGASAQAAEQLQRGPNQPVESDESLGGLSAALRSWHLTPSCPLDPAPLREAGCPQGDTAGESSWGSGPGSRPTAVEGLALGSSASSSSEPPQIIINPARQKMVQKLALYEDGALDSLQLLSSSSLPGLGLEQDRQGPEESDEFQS

At CDK7, `CN(C)C/C=C/C(=O)Nc1cccc(C(=O)Nc2cccc(Nc3ncc(Cl)c(-c4c[nH]c5ccccc45)n3)c2)c1` [Formula I-18] gave an IC50 of 13.9 nM.

On to `Cc1cnc(Nc2cccc(NC(=O)c3ccc(NC(=O)/C=C/CN(C)C)cc3)c2)nc1-c1c[nH]c2ccccc12` [Formula I-19], for which, at CDK7, the IC50 was 15.7 nM.

In turn, `CCc1cnc(Nc2cccc(NC(=O)c3ccc(NC(=O)/C=C/CN(C)C)cc3)c2)nc1-c1c[nH]c2ccccc12` [Formula I-21] had an IC50 on CDK7 of 22.7 nM.

For the compound `Cc1ccc(NC(=O)c2ccc(NC(=O)/C=C/CN(C)C)cc2)cc1Nc1ncc(Cl)c(-c2c[nH]c3ccccc23)n1` [Formula I-22], the IC50 against CDK7 was 32.6 nM.

For the compound `C=CC(=O)Nc1ccc(C(=O)Nc2cccc(Nc3ncc(Cl)c(-c4c[nH]c5ccccc45)n3)c2)cc1` [Formula I-24], on CDK7, the IC50 worked out at 40 nM.

Consider `CN(C)C/C=C/C(=O)Nc1ccc(C(=O)Nc2ccc(Cl)c(Nc3ncc(Cl)c(-c4c[nH]c5ccccc45)n3)c2)cc1` [Formula I-25], for which, at CDK7, the IC50 amounted to 87.8 nM.

For `CN(C)C/C=C/C(=O)Nc1ccc(C(=O)Nc2cccc(Nc3ncc(C4CC4)c(-c4c[nH]c5ccccc45)n3)c2)cc1` [Formula I-26], at CDK7, the IC50 stood at 184 nM.

Regarding `CN(C)C/C=C/C(=O)Nc1ccc(C(=O)Nc2cccc(Nc3ncc(Cl)c(-n4cnc5ccccc54)n3)c2)cc1` [Formula I-27], the IC50 against CDK7 was determined as 201 nM.

At CDK7, `CN(C)C/C=C/C(=O)Nc1ccc(C(=O)Nc2cccc(Nc3ncc(Cl)c(-c4cn(C)c5ccccc45)n3)c2)cc1` [Formula I-28] came in with an IC50 of 238 nM.

`CN(C)C/C=C/C(=O)Nc1ccc(C(=O)Nc2cccc(Nc3ncc(Cl)c(-c4cnc5[nH]ccc5c4)n3)c2)cc1` [Formula I-29]: the IC50 on CDK7 is 288 nM.

`CN(C)C/C=C/C(=O)Nc1ccc(C(=O)Nc2cccc(Nc3ncc(Cl)c(-c4cccc5[nH]ccc45)n3)c2)cc1` [Formula I-30]: the IC50 against CDK7 is 347 nM.

Take `CN(C)C/C=C/C(=O)Nc1ccc(C(=O)Nc2cccc(Nc3ncc(Cl)c(-c4cccc5[nH]ccc45)n3)c2)cc1` [Formula I-31]: on CDK7, the IC50 was 416 nM.

With `CN(C)C/C=C/C(=O)Nc1ccc(C(=O)Nc2cccc(Nc3ncc(Cl)c(-c4ccc5cc[nH]c5c4)n3)c2)cc1` [Formula I-32], the IC50 at CDK7 amounted to 1180 nM.

In turn, `CN(C)C/C=C/C(=O)Nc1ccc(C(=O)Nc2cccc(Nc3nc(-c4c[nH]c5ccccc45)c4ccccc4n3)c2)cc1` [Formula I-33] yielded an IC50 at CDK7 of 1420 nM.

As to `CN(C)C/C=C/C(=O)Nc1ccc(C(=O)Nc2cccc(Nc3ncc(Cl)c(-c4cc5ccccc5[nH]4)n3)c2)cc1` [Formula I-34], the IC50 against CDK7 was 4750 nM.

`CCSC(=O)CCNc1ccc(C(=O)Nc2cccc(Nc3ncc(Cl)c(-c4c[nH]c5ccccc45)n3)c2)cc1` [Formula I-37]: at CDK7, the IC50 is 557 nM.

As to `CN(C)C/C=C/C(=O)Nc1ccc(C(=O)Nc2cccc(Nc3ncc(Cl)c(-c4c(-c5ccccc5)nn5ccccc45)n3)c2)cc1` [Formula I-38], on CDK7, the IC50 came to 3010 nM.

`Cc1nc(Nc2cccc(NC(=O)c3ccc(NC(=O)/C=C/CN(C)C)cc3)c2)nc(-c2c[nH]c3ccccc23)c1C` [Formula I-39] returned an IC50 at CDK7 of 1350 nM.

`Cc1cccc2[nH]cc(-c3ccnc(Nc4cccc(NC(=O)c5ccc(NC(=O)/C=C/CN(C)C)cc5)c4)n3)c12` [Formula I-40] returned an IC50 against CDK7 of 3470 nM.

On CDK7, `Cc1cnc(Nc2cccc(NC(=O)c3ccc(NC(=O)/C=C/CN(C)C)cc3)c2)nc1-c1c[nH]c2cccc(C)c12` [Formula I-41] gave an IC50 of 809 nM.

`CN(C)C/C=C/C(=O)Nc1ccc(C(=O)Nc2cccc(Nc3ncc(C(F)(F)F)c(-c4c[nH]c5ccccc45)n3)c2)cc1` [Formula I-42] registered an IC50 against CDK7 of 35.7 nM.

For the compound `CN(C)C/C=C/C(=O)NCc1ccc(C(=O)Nc2cccc(Nc3ncc(Cl)c(-c4c[nH]c5ccccc45)n3)c2)cc1` [Formula I-43], the IC50 against CDK7 amounted to 36.2 nM.

For `CN(C)C/C=C/C(=O)Nc1ccc(C(=O)Nc2cccc(Nc3nccc(-c4c[nH]c5ccccc45)n3)c2)cc1` [Formula I-44], at CDK7, the IC50 came out at 391 nM.

Take `Cc1nc(C)c(-c2nc(Nc3cccc(NC(=O)c4ccc(NC(=O)/C=C/CN(C)C)cc4)c3)ncc2Cl)s1` [Formula I-50]: the IC50 at CDK7 was 92.3 nM.

Take `CN(C)C/C=C/C(=O)Nc1ccc(S(=O)(=O)Nc2cccc(Nc3ncc(Cl)c(-c4c[nH]c5ccccc45)n3)c2)cc1` [Formula I-52, (E)-N-(4-(N-(3-(5-chloro-4-(1H-indol-3-yl)pyrimidin-2-ylamino)phenyl)sulfamoyl)phenyl)-4-(dimethylamino)but-2-enamide]: the IC50 in the experiment with Jurkat was 100 to 1000 nM.

Turning to `CN(C)C/C=C/C(=O)Nc1ccc(S(=O)(=O)Nc2cccc(Nc3ncc(C#N)c(-c4c[nH]c5ccccc45)n3)c2)cc1` [Formula I-55, (E)-N-(4-(N-(3-(5-cyano-4-(1H-indol-3-yl)pyrimidin-2-ylamino)phenyl)sulfamoyl)phenyl)-4-(dimethylamino)but-2-enamide], the IC50 in the experiment on Jurkat is 100 to 1000 nM.

Turning to `Cc1ccc(Nc2ncc(C#N)c(-c3c[nH]c4ccccc34)n2)cc1NC(=O)c1ccc(NC(=O)/C=C/CN(C)C)cc1` [Formula I-56, (E)-N-(5-(5-cyano-4-(1H-indol-3-yl)pyrimidin-2-ylamino)-2-methylphenyl)-4-(4-(dimethylamino)but-2-enamido)benzamide], in the experiment with Jurkat, the IC50 was < 100 nM. The “Percent inhibition, MLK3^b” value at MLK3 is “C (less than 50% inhibition)”. Moreover, the “Percent inhibition, IRAK1^b” value on IRAK1 is reported as “C (less than 50% inhibition)”.

For `CN(C)C/C=C/C(=O)Nc1ccc(C(=O)N(C)c2cccc(Nc3ncc(Cl)c(-c4c[nH]c5ccccc45)n3)c2)cc1` [Formula I-57, (E)-N-(3-(5-chloro-4-(1H-indol-3-yl)pyrimidin-2-ylamino)phenyl)-4-(4-(dimethylamino)but-2-enamido)-N-methylbenzamide], the IC50 in the experiment with Jurkat was ≥ 1000 nM. Also, on MLK3, the “Percent inhibition, MLK3^b” value was “C (less than 50% inhibition)”. Further, the “Percent inhibition, IRAK1^b” value on IRAK1 is “C (less than 50% inhibition)”.

For the compound `CC(C)[C@]12O[C@H]1[C@@H]1O[C@]13[C@]1(O[C@H]1C[C@H]1C4=C(CC[C@@]13C)C(=O)OC4)[C@@H]2O` [Triptolide, triptolide, reference compound], the IC50 in the experiment with T47D was > 5000 nM; with MDA-MB231, < 500 nM; with RS4-11, < 500 nM; in the experiment with SKBR3, < 500 nM; in the experiment with MCF10A, < 500 nM; in the experiment on SAOS, < 500 nM. Moreover, the IC50 in the experiment on RD-ES is < 500 nM; in the experiment with Hs822T it was 500 to 5000 nM; in the experiment on MNNG-HOS Cl#5 it was < 500 nM; with MCF7 it was < 500 nM; with THP-1 it was < 500 nM; in the experiment with MV4-11, < 500 nM. Further, the IC50 in the experiment with A673 is < 500 nM; in the experiment with HL60, < 500 nM; with SK-ES, < 500 nM; in the experiment with 143B it was < 500 nM; in the experiment with hTERT-HME1, < 500 nM; in the experiment on Hs863T, > 5000 nM.

The values above are taken from patent US10787436B2, “Inhibitors of cyclin-dependent kinase 7 (CDK7)” (Dana-Farber Cancer Institute, Inc., priority 2012, dated 2020).
